Laboratory results taken from ChEMBL document CHEMBL1132048, “Optimisation of the P2 pharmacophore in a series of thrombin inhibitors: ion-dipole interactions with lysine 60G” (Bioorg Med Chem Lett, 1999).

Tested on: not listed separately
Assay: pKa was determined
Assay type: physicochemical

SMILES	pKa
NCCCC[C@H](N)C(=O)O [LYSINE]	10.2

Target: Prothrombin (Homo sapiens, UniProt P00734)
Assay: Inhibition of human thrombin (in vitro)

Ki	SMILES
38 nM	CNC(=O)OCCC1CCN(C(=O)[C@H](Cc2nc3ccccc3s2)NS(=O)(=O)c2cccc3c2NCC(C)(C)C3)CC1
93 nM	CC1(C)CNc2c(cccc2S(=O)(=O)N[C@@H](Cc2nc3ccccc3s2)C(=O)N2CCC(CCCl)CC2)C1
240 nM	CCC1CCN(C(=O)[C@H](Cc2nc3ccccc3s2)NS(=O)(=O)c2cccc3c2NCC(C)(C)C3)CC1
65 nM	CCNC(=O)NCCC1CCN(C(=O)[C@H](Cc2nc3ccccc3s2)NS(=O)(=O)c2cccc3c2NCC(C)(C)C3)CC1
52 nM	CC1(C)CNc2c(cccc2S(=O)(=O)N[C@@H](Cc2nc3ccccc3s2)C(=O)N2CCC(CCNC(=O)OC(C)(C)C)CC2)C1
350 nM	CC1(C)CNc2c(cccc2S(=O)(=O)N[C@@H](Cc2nc3ccccc3s2)C(=O)N2CCN(CCO)CC2)C1
38300 nM	CN(C)CCC1CCN(C(=O)[C@H](Cc2nc3ccccc3s2)NS(=O)(=O)c2cccc3c2NCC(C)(C)C3)CC1
56 nM	COC(=O)NCCC1CCN(C(=O)[C@H](Cc2nc3ccccc3s2)NS(=O)(=O)c2cccc3c2NCC(C)(C)C3)CC1
182 nM	CCCCNC(=O)NCCC1CCN(C(=O)[C@H](Cc2nc3ccccc3s2)NS(=O)(=O)c2cccc3c2NCC(C)(C)C3)CC1
1000 nM	CN(C)C(=O)NCCC1CCN(C(=O)[C@H](Cc2nc3ccccc3s2)NS(=O)(=O)c2cccc3c2NCC(C)(C)C3)CC1
1180 nM	CC1(C)CNc2c(cccc2S(=O)(=O)N[C@@H](Cc2nc3ccccc3s2)C(=O)N2CCC(CCN)CC2)C1
654 nM	CC(=O)NCCC1CCN(C(=O)[C@H](Cc2nc3ccccc3s2)NS(=O)(=O)c2cccc3c2NCC(C)(C)C3)CC1
24 nM	CNC(=O)NCCC1CCN(C(=O)[C@H](Cc2nc3ccccc3s2)NS(=O)(=O)c2cccc3c2NCC(C)(C)C3)CC1
119 nM	CNS(=O)(=O)NCCC1CCN(C(=O)[C@H](Cc2nc3ccccc3s2)NS(=O)(=O)c2cccc3c2NCC(C)(C)C3)CC1
7830 nM	CC1(C)CNc2c(cccc2S(=O)(=O)N[C@@H](Cc2nc3ccccc3s2)C(=O)N2CCC(CCC(=O)O)CC2)C1
26 nM	CC1(C)CNc2c(cccc2S(=O)(=O)N[C@@H](Cc2nc3ccccc3s2)C(=O)N2CCC(CCF)CC2)C1
79 nM	CC1(C)CNc2c(cccc2S(=O)(=O)N[C@@H](Cc2nc3ccccc3s2)C(=O)N2CCC(CCO)CC2)C1
